Series [1] in a line: Pharmacokinetic study of Cory B, CB6 and CB8 in rats (plasma, LC/MS/MS, NCA). Further details: species or system Male Sprague-Dawley (SD) rats. Particulars: rat, in vivo, 1 mg/kg; for AUC / Cmax / MRT / half-life: male, Sprague-Dawley. Here is the method: Male Sprague-Dawley (SD) rats (weighting ˜200 g) used in the experiment are provided by Laboratory Animal Services Center of The Chinese University of Hong Kong (Hong Kong SAR, People's Republic of China). Cory B (n=3), CB6 (n=6) and CB8 (n=6). For the jugular vein cannulation surgery, the rats are anesthetized (intramuscular injection of a mixture of 80 mg/kg ketamine and 8 mg/kg xylazine) followed by inserting a polyethylene tube (0.5 mm ID, 1 mm OD, Portex Ltd., England) into the right jugular vein. The cannulated rats are allowed to recover overnight while fasting with free access to water. For intravenous (IV) administrations, Cory B, CB6 or CB8 (200 μg/mL, dissolved in saline containing 9.2% PEG400+0.5% DMSO, w/w) is given through the jugular vein catheter at 1 mg/kg. For intranasal (IN) administration, 10 μL of Cory B, CB6 or CB8 (10 mg/mL, dissolved with 40% PEG400, 10% DMSO in H2O, w/w) is given to each nostril of rats. At pre-determined time points post-dosing (5, 10, 20, 30, 60, 120, 240 and 360 min for IV and IN administration groups), approximately 200 μL blood is collected into a heparinized centrifuge tube containing 5 μM EDTA followed by centrifugation at 3000 rpm for 5 min to obtain the plasma. To 100 μL rat plasma sample, an aliquot of 100 μL internal standard (IS) and 100 μL of acetonitrile are added. The mixture is mixed for 1 min by vortex and then centrifuged for 10 min at 13,200 rpm. 200 μL of supernatant is transferred into centrifuge tubes and mixed with 200 μL of H2O containing 4% formic acid (FA). After another round of vortex and centrifugation, 10 μL of the supernatant is subjected to LC/MS/MS for quantification of Cory B, CB6 or CB8 with an established LC/MS/MS method. Pharmacokinetic parameters from non-compartmental analysis (NCA) are calculated using WinNonLin. The pharmacokinetic parameters and profiles of each analytes are shown as below.

Series [2] has as its system N2a GFP-LC3 cells. Kind of series: GFP-LC3 puncta formation in N2a cells constantly expressing GFP-LC3 (confocal). It is filed as cell-based, mouse. Particulars: for pro-autophagic activity (GFP-LC3 puncta): 50 μM, 12 hours. The procedure:
Cell imaging and puncta counting. Cells were fixed in 3.7% paraformaldehyde (158127, Sigma) for 10 minutes and mounted with FluorSave reagent. Cell images were recorded using a fluorescence microscope or confocal microscope. GFP or RFP Puncta number were counted in cells as described previously. Briefly, the GFP-LC3 or RFP-LC3 puncta in each cell were manually counted, and at least 50 cells were randomly selected for counting in each group. The data presented were from one representative experiment of at least 3 independent experiments.
Further, a neuroblastoma cell line N2a constantly expressing GFP-LC3 (a standard autophagy marker protein) is established. The formation of GFP-LC3 puncta under Cory B treatment is observed under a confocal microscope. Data is presented as the mean±SEM of one representative experiment from three independent experiments. (*p<0.05, ***p<0.001, one-way ANOVA for multiple comparison and Tukey's test as post hoc test).
To confirm that enhancement of autophagy markers by Cory B is due to induction of autophagy rather than blockage of autophagosome maturation, N2a cells are treated with 25 μM Cory B or 30 μM lysosome inhibitor CQ together with Cory B for 12 hours. Cell lysates are subject to western blot analysis. Data are presented as the mean±SEM from 3 independent experiments (***p<0.001, one-way ANOVA for multiple comparison and Tukey's test as post hoc test). Both LC3-II levels and the number of GFP-LC3 puncta in the Cory B and CQ co-treatment group are much higher than in the CQ-alone treatment group (FIG. 2A-D). Meanwhile, Cory B induces GFP-LC3 puncta formation is abolished by treatment of 5 mM autophagy inhibitor 3-MA for 24 hours (FIG. 2C, D). Cells were fixed in 4% paraformaldehyde and analyzed under a confocal microscope. Data are presented as the mean±SEM of one representative experiment from three independent experiments. (***p<0.001, one-way ANOVA for multiple comparison and Tukey's test as post hoc test). […] Thus, Cory B is indeed an autophagy inducer in neuronal cells.
In order to observe the pro-autophagic activity of CB6 and CB8 intuitively, N2a cells constantly expressing GFP-LC3 are treated with 50 μM Cory B, CB6 and CB8 for 12 hours respectively. The cells are than fixed with 4% paraformaldehyde (Sigma, 158127) for 10 minutes, and then mounted with VECTASHIELD hardset anti-fade mounting medium. The mounted samples are then subjected to confocal microscopy analysis.
After designated treatments, N2a cells constantly expressing GFP-LC3 were fixed with 4% paraformaldehyde (Sigma, 158127) for 10 min, and then mounted with VECTASHIELD hardset antifade mounting medium. The mounted samples were then subjected to confocal microscopy analysis.

Like-named read-outs stand apart in the source and are kept apart here.

The results in this text go back to patent US9604987B2, “Synthesis of autophagy inducing compound and the uses thereof” (Hong Kong Baptist University, priority 2012, dated 2017).

Take `CCCN1C(=O)[C@]2(CCN3C[C@@H](CC)[C@@H](/C(=C\OC)C(=O)OC)C[C@H]32)c2ccccc21` [CB6]: in series [1] (inhaled or intranasal), the AUC – broadly, the area under the concentration-time curve, a measure of exposure – is 200 ng·h/mL; the Cmax was 244 ± 33 ng/mL; the MRT (commonly a mean duration of stay, worked out from the concentration-time curve) is 1.83 h; the half-life was found to be 1.93 ± 0.133 h. For the same compound, in series [1] (inhaled or intranasal), the “Tmax (time to reach Cmax)” value came out at 5 ± 0 min. In series [1] (iv), this compound gave an AUC of 248 ng·h/mL, a Cmax of 520 ± 177 ng/mL, an MRT of 1.58 h and a half-life of 2 ± 0.25 h. Besides, the “Cmax and Area Under Curve (AUC) in comparison Cory B” value in series [1] (iv) is given as “greater”. Also, in series [2], the “pro-autophagic activity (GFP-LC3 puncta)” value is given as “confirmed to be autophagy inducers”.

Take `CC[C@@H]1CN2CC[C@]3(C(=O)Nc4ccccc43)C2C[C@@H]1C(=COC)C(=O)OC` (some centres unmarked) [Cory B, Corynoxine B]: the AUC in series [1] (inhaled or intranasal, rats, intranasal, read-out: AUC (area under the curve) (converted)) was 92.6 ng·h/mL; in series [1] (rats, intravenous, read-out: AUC (area under the curve) (converted)) it was 63.6 ng·h/mL. Moreover, the Cmax was determined as 145 ± 62 ng/mL in series [1] (inhaled or intranasal, rats, intranasal, read-out: Cmax (maximum plasma concentration)) and 66 ± 8 ng/mL in series [1] (rats, intravenous, read-out: Cmax (maximum plasma concentration)). Besides, the MRT in series [1] (inhaled or intranasal, rats, intranasal, read-out: MRT (mean residence time) (converted)) was 2.22 h; in series [1] (rats, intravenous, read-out: MRT (mean residence time) (converted)), 2.3 h. The half-life came to 1.93 ± 0.233 h in series [1] (inhaled or intranasal, rats, intranasal, read-out: t1/2 (plasma half-life)) and 2.13 ± 0.367 h in series [1] (rats, intravenous, read-out: t1/2 (plasma half-life)). The “GFP-LC3 puncta formation in presence of autophagy inhibitor 3-MA” value in series [2] (5 mM 3-MA, 24 hours) is listed as “abolished”. Also, the GFP-LC3 puncta formation result in series [2] (N2a GFP-LC3 cells, Cory B treatment) is recorded as “induces massive GFP-LC3 puncta formation”.

For `C=CCN1C(=O)[C@]2(CCN3C[C@@H](CC)[C@@H](/C(=C\OC)C(=O)OC)C[C@H]32)c2ccccc21` [CB8], in series [1] (inhaled or intranasal), the AUC is 124 ng·h/mL, the Cmax came to 129 ± 61 ng/mL, the MRT is 1.95 h and the half-life amounted to 1.65 ± 0.217 h. Also, the “Tmax (time to reach Cmax)” value in series [1] (inhaled or intranasal) is 5 ± 0 min. In series [1] (iv), this compound showed an AUC of 102 ng·h/mL, a Cmax of 143 ± 42 ng/mL, an MRT of 1.65 h and a half-life of 1.87 ± 0.433 h. The “Cmax and Area Under Curve (AUC) in comparison Cory B” value in series [1] (iv) was “greater”. For the same compound, the “pro-autophagic activity (GFP-LC3 puncta)” value in series [2] is given as “confirmed to be autophagy inducers”.
